# Key:
# human androgen receptor = target: T1, human androgen receptor (Homo sapiens, UniProt P10275); test: Reporter assay of an androgen receptor responsive sequence (luciferase, transiently transfected HEK293 cells); assay type: cell-based; conditions: 24 hours incubation, relative to activity of 100 nM DHT, read-out: AR transcriptive activity (pEC50) (converted)
# T1 construct: expressed in transfected cells; host or cells: HEK293
# T1 sequence (P10275 1-920): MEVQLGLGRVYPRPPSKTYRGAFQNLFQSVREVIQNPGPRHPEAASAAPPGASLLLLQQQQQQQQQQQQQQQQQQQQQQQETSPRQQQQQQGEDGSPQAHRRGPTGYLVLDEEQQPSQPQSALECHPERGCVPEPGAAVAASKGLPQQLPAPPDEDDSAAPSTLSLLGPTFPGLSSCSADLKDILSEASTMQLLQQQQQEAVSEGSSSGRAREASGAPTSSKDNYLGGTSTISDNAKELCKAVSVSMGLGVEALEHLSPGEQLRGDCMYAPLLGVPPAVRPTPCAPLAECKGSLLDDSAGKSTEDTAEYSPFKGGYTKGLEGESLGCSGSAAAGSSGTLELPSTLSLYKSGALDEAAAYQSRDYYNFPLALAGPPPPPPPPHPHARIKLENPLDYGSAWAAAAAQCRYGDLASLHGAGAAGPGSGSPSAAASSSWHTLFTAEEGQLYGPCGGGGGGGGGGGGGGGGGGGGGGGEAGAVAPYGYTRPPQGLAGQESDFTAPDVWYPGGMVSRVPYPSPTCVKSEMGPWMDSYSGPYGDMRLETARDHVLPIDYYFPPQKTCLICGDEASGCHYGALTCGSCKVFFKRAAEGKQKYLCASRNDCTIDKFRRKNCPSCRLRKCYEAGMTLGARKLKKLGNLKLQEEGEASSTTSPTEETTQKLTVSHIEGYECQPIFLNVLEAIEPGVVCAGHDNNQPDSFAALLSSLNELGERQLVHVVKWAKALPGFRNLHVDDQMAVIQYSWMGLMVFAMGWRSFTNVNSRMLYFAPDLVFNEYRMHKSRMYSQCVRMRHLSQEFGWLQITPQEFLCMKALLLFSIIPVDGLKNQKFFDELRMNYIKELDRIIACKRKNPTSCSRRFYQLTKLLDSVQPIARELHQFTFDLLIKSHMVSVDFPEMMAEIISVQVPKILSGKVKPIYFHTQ
# Method in brief: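 HEK293 cells transiently transfected for 3 h with ARE-firefly luciferase, full-length human AR and TK-Renilla plasmids, then exposed to compound for 24 h at 37 °C in 5% charcoal-treated FBS/DMEM. Dual-Glo luminescence read; pEC50 from 4-parameter fit relative to 100 nM DHT.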
# [1] = target: T2, androgen receptor (AR-LBD) (Rattus norvegicus, UniProt P15207); test: Evaluation of androgen receptor affinity (PolarScreen Androgen Receptor Competitor Assay Kit, Red; fluorescence polarization); conditions: 22° C. for 5 hours, relative to binding rate of 1 μM DHT, read-out: AR affinity (pEC50) (converted)
# T2 construct: 5 μL of 2×AR-LBD/Fluoromone AL Red Complex contained in the kit; purchased Invitrogen
# T2 sequence (P15207 651-882 limits assumed): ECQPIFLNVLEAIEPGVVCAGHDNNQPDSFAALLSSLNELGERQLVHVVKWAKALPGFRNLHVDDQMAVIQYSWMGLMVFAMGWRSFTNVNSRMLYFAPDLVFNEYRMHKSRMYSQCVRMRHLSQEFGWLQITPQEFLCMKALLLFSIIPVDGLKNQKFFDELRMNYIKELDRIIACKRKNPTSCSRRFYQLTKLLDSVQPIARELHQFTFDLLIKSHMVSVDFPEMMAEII
# Method in brief: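 Fluorescence polarization read-out after 5 h at 22° C of compound with a red-fluorophore-labelled AR-LBD complex. Displacement is scaled against 1 μM DHT, and the log reciprocal of the concentration reaching half that effect gives pEC50 via four-parameter curve fitting.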
Compound,EC50 (human androgen receptor),EC50 [1]
"Cc1nc(CN(CCc2ccc(OC(F)(F)F)cc2)c2nc(C(=O)NS(C)(=O)=O)c(C)s2)cs1 [Compound 507, 5-methyl-N-methylsulfonyl-2-[(2-methylthiazol-4-yl)methyl-[2-[4-(trifluoromethoxy)phenyl]ethyl]amino]thiazole-4-carboxamide]",501 nM,39.8 nM
"Cc1sc(N(CCc2cccc(Cl)c2)c2ccc(C#N)cc2)nc1C(=O)NS(C)(=O)=O [Compound 139, 2-[N-[2-(3-chlorophenyl)ethyl]-4-cyano-anilino]-5-methyl-N-methylsulfonyl-thiazole-4-carboxamide]",1580 nM,79.4 nM
"Cc1sc(N(Cc2ccccc2SC(F)(F)F)c2ccc(C#N)cc2)nc1C(=O)NS(C)(=O)=O [Compound 56, 2-[4-cyano-N-[[2-(trifluoromethylsulfanyl)phenyl]methyl]anilino]-5-methyl-N-methylsulfonyl-thiazole-4-carboxamide]",6310 nM,63.1 nM
"Cc1sc(N(CCc2ccccc2F)Cc2ccccc2)nc1C(=O)NS(C)(=O)=O [Compound 339, 2-[benzyl-[2-(2-fluorophenyl)ethyl]amino]-5-methyl-N-methylsulfonyl-thiazole-4-carboxamide]",2000 nM,39.8 nM
"Cc1oc(N(CCc2ccc(Cl)cc2)Cc2cccc(OC(F)(F)F)c2)nc1C(=O)NS(C)(=O)=O [Compound 542, 2-[2-(4-chlorophenyl)ethyl-[[3-(trifluoromethoxy)phenyl]methyl]amino]-5-methyl-N-methylsulfonyl-oxazole-4-carboxamide]",501 nM,79.4 nM
"Cc1sc(N(Cc2ccc(OC(F)(F)F)cc2)c2ccc(C#N)cc2)nc1C(=O)NS(=O)(=O)Cc1ccncc1 [Compound 500, 2-[4-cyano-N-[[4-(trifluoromethoxy)phenyl]methyl]anilino]-5-methyl-N-(4-pyridylmethylsulfonyl)thiazole-4-carboxamide]",126 nM,20 nM
"Cc1sc(N(Cc2ccc3nonc3c2)c2ccc(C#N)cc2)nc1C(=O)NS(C)(=O)=O [Compound 361, 2-[N-(2,1,3-benzoxadiazol-5-ylmethyl)-4-cyano-anilino]-5-methyl-N-methylsulfonyl-thiazole-4-carboxamide]",631 nM,39.8 nM
"Cc1sc(N(Cc2cnc(C3CC3)s2)c2ccc(C#N)cc2)nc1C(=O)NS(C)(=O)=O [Compound 466, 2-[4-cyano-N-[(2-cyclopropylthiazol-5-yl)methyl]anilino]-5-methyl-N-methylsulfonyl-thiazole-4-carboxamide]",398 nM,100 nM
"Cc1sc(N(Cc2ccccc2)c2ccc(C#N)cc2)nc1C(=O)NS(=O)(=O)CC(C)C [Compound 371, 2-(N-benzyl-4-cyano-anilino)-N-isobutylsulfonyl-5-methyl-thiazole-4-carboxamide]",> 10000 nM,200 nM
"Cc1sc(N(CCc2ccc(OC(F)F)cc2)Cc2nc(C3CC3)no2)nc1C(=O)NS(C)(=O)=O [Compound 162, 2-[(3-cyclopropyl-1,2,4-oxadiazol-5-yl)methyl-[2-[4-(difluoromethoxy)phenyl]ethyl]amino]-5-methyl-N-methylsulfonyl-thiazole-4-carboxamide]",1000 nM,158 nM
"CCC(C)CN(c1ccc(C#N)cc1)c1nc(C(=O)NS(C)(=O)=O)c(C)s1 (stereo not shown) [Compound 89, 2-[4-cyano-N-(2-methylbutyl)anilino]-5-methyl-N-methylsulfonyl-thiazole-4-carboxamide]",> 10000 nM,501 nM
"Cc1oc(N(CCc2ccc(C#N)cc2)Cc2ccc(OC(F)F)cc2)nc1C(=O)NS(C)(=O)=O [Compound 553, 2-[2-(4-cyanophenyl)ethyl-[[4-(difluoromethoxy)phenyl]methyl]amino]-5-methyl-N-methylsulfonyl-oxazole-4-carboxamide]",316 nM,31.6 nM

# Next, values leading:
EC50 (human androgen receptor),EC50 [1],Compound
158 nM,31.6 nM,"Cc1sc(N(CCc2ccc(Cl)cc2)Cc2ccc(OC(F)(F)F)cc2)nc1C(=O)NS(=O)(=O)Cc1cccnc1 [Compound 703, 2-[2-(4-chlorophenyl)ethyl-[[4-(trifluoromethoxy)phenyl]methyl]amino]-5-methyl-N-(3-pyridylmethylsulfonyl)thiazole-4-carboxamide]"
251 nM,31.6 nM,"CCS(=O)(=O)NC(=O)c1nc(N(CCc2ccc(C#N)cc2)Cc2ccc(Cl)cc2)sc1C [Compound 713, 2-[(4-chlorophenyl)methyl-[2-(4-cyanophenyl)ethyl]amino]-N-ethylsulfonyl-5-methyl-thiazole-4-carboxamide]"
63.1 nM,39.8 nM,"Cc1sc(N(Cc2ccc(Br)cc2F)c2ccc(C#N)cc2)nc1C(=O)NS(C)(=O)=O [Example 185, 2-[N-[(4-bromo-2-fluoro-phenyl)methyl]-4-cyano-anilino]-5-methyl-N-methylsulfonyl-thiazole-4-carboxamide]"
100 nM,63.1 nM,"CS(=O)(=O)NC(=O)c1nc(N(Cc2cccc(F)c2)c2ccc(C#N)cc2)sc1Cl [Example 258, 5-chloro-2-[4-cyano-N-[(3-fluorophenyl)methyl]anilino]-N-methylsulfonyl-thiazole-4-carboxamide]"
158 nM,79.4 nM,"Cc1sc(N(CCc2ccc(Cl)cc2Cl)Cc2ccccc2)nc1C(=O)NS(C)(=O)=O [Example 315, 2-[benzyl-[2-(2,4-dichlorophenyl)ethyl]amino]-5-methyl-N-methylsulfonyl-thiazole-4-carboxamide]"
200 nM,79.4 nM,"CS(=O)(=O)NC(=O)c1nc(N(Cc2ccccc2Cl)c2ccc(C#N)cc2)sc1Br [Example 240, 5-bromo-2-[N-[(2-chlorophenyl)methyl]-4-cyano-anilino]-N-methylsulfonyl-thiazole-4-carboxamide]"
5010 nM,126 nM,"CCS(=O)(=O)NC(=O)c1nc(N(CCC2CCCCC2)Cc2ccc(Cl)cc2)sc1C [Compound 729, 2-[(4-chlorophenyl)methyl-(2-cyclohexylethyl)amino]-N-ethylsulfonyl-5-methyl-thiazole-4-carboxamide]"
7940 nM,316 nM,"COCCCS(=O)(=O)NC(=O)c1nc(N(CCc2ccc(C#N)cc2)Cc2ccc(C(F)(F)F)nc2)oc1C [Compound 559, 2-[2-(4-cyanophenyl)ethyl-[[6-(trifluoromethyl)-3-pyridyl]methyl]amino]-N-(3-methoxypropylsulfonyl)-5-methyl-oxazole-4-carboxamide]"
126 nM,50.1 nM,"CS(=O)(=O)NC(=O)c1nc(N(Cc2cccc(OC(F)F)c2)c2ccc(C#N)cc2)sc1Cl [Example 276, 5-chloro-2-[4-cyano-N-[[3-(difluoromethoxy)phenyl]methyl]anilino]-N-methylsulfonyl-thiazole-4-carboxamide]"
1260 nM,63.1 nM,"Cc1sc(N(Cc2ccc(OCC3CCOCC3)cc2)c2ccc(C#N)cc2)nc1C(=O)NS(C)(=O)=O [Compound 576, 2-[4-cyano-N-[[4-(tetrahydropyran-4-ylmethoxy)phenyl]methyl]anilino]-5-methyl-N-methylsulfonyl-thiazole-4-carboxamide]"
2000 nM,79.4 nM,"Cc1oc(N(Cc2cccc(Cl)c2)c2ccc(C#N)cc2)nc1C(=O)NS(C)(=O)=O [Compound 611, 2-[N-[(3-chlorophenyl)methyl]-4-cyano-anilino]-5-methyl-N-methylsulfonyl-oxazole-4-carboxamide]"

# Reference: patent US10689354B2, “Aminoazole derivative” (Teijin Pharma Limited, priority 2015, dated 2020)
